Structures can show the parent of a compound that is named as a salt.
What was measured:
hmGluR5a receptor = hmGluR5a receptor (Homo sapiens (Human), UniProt P41594); assay: Calcium Flux Assay; type: cell-based; conditions: hmGluR5a/L38-20 cells, glutamate-evoked [Ca2+]i
Experimental: The activity of compounds was examined against the hmGluR5a receptor stably expressed in mouse fibroblast Ltk− cells (the hmGluR5a/L38-20 cell line). See generally Daggett et al., Neuropharmacology 34:871-886 (1995). Receptor activity was detected by changes in intracellular calcium ([Ca^2+]i) measured using the fluorescent calcium-sensitive dye, fura-2. hmGluR5a/L38-20 cells were plated onto 96-well plates, and loaded with 3 µM fura-2 for 1 h. Unincorporated dye was washed from the cells, and the cell plate was transferred to a custom-built 96-channel fluorimeter (SIBIA-SAIC, La Jolla, Calif.) which is integrated into a fully automated plate handling and liquid delivery system. Cells were excited at 350 and 385 nm with a xenon source combined with optical filters. Emitted light was collected from the sample through a dichroic mirror and a 510 nm interference filter and directed into a cooled CCD camera (Princeton Instruments). Image pairs were captured approximately every 1 s, and ratio images were generated after background subtraction. After a basal reading of 20 s, an EC80 concentration of glutamate ([…]) was added to the well, and the response evaluated for another 60 s. The glutamate-evoked increase in [Ca^2+]i in the presence of the screening compound was compared to the response of glutamate alone (the positive control).

[1] = biological target: metabotropic glutamate receptor subtype 5 (Rattus norvegicus (Rat), UniProt P31424); assay: [3H]-mGluR5 Antagonist Binding to Rodent Brain Membranes
Experimental: In accordance with Anderson J J, Rao S P, Rowe B, Giracello D R, Holtz G, Chapman D F, Tehrani L, Bradbury M J, Cosford N D, Varney M A, [^3H]Methoxymethyl-3-[(2-methyl-1,3-thiazol-4-yl)ethynyl]pyridine binding to metabotropic glutamate receptor subtype 5 in rodent brain: in vitro and in vivo characterization. J Pharmacol Exp Ther. 2002 December; 303 (3):1044-51, membranes were prepared (as described in Ransom R W and Stec N L (1988) Cooperative modulation of [^3H]MK-801 binding to the N-methyl-D-aspartate receptor-ion channel complex by L-glutamate, glycine, and polyamines. J Neurochem 51:830-836) using whole rat brain, or mGlu5^+/+ or mGlu5^−/− whole mouse brain.
Binding assays were performed as described in Schaffhauser H, Richards J G, Cartmell J, Chaboz S, Kemp J A, Klingelschmidt A, Messer J, Stadler H, Woltering T and Mutel V (1998) In vitro binding characteristics of a new selective group II metabotropic glutamate receptor radioligand, [^3H]LY354740, in rat brain. Mol Pharmacol 53:228-233) at room temperature with slight modifications. Briefly, membranes were thawed and washed once with assay buffer (50 mM HEPES, 2 mM MgCl2, pH 7.4), followed by centrifugation at 40,000×g for 20 min. The pellet was resuspended in assay buffer and briefly homogenized with a Polytron.
For protein linearity experiments, increasing concentrations of membrane protein were added to 96-well plates in triplicate and binding was initiated by addition of 20 nM [^3H]methoxymethyl-3-[(2-methyl-1,3-thiazol-4-yl)ethynyl]pyridine. The assay was incubated for 2 h and non-specific binding was determined using 10 μM MPEP. The binding was terminated by rapid filtration through glass-fiber filters (Unifilter-96 GF/B plate, Packard) using a 96-well plate Brandel cell harvester. Following addition of scintillant, the radioactivity was determined by liquid scintillation spectrometry. Protein measurements were performed by BioRad-DC Protein assay using bovine serum albumin as the standard.
Saturation binding experiments were performed in triplicate with increasing concentrations of [^3H]methoxymethyl-3-[(2-methyl-1,3-thiazol-4-yl)ethynyl]pyridine (1 pM to 100 nM). The time course of association was measured by the addition of 10 nM [^3H]methoxymethyl-3-[(2-methyl-1,3-thiazol-4-yl)ethynyl]pyridine to the membranes at different time points (0-240 min), followed by filtration. Dissociation was measured by the addition of 100 μM unlabeled methoxymethyl-3-[(2-methyl-1,3-thiazol-4-yl)ethynyl]pyridine at different time points to membranes previously incubated for 3 h with 10 nM [^3H]methoxymethyl-3-[(2-methyl-1,3-thiazol-4-yl)ethynyl]pyridine. For competition experiments, 100 μg membrane protein and 10 nM [^3H]methoxymethyl-3-[(2-methyl-1,3-thiazol-4-yl)ethynyl]pyridine was added to wells containing increasing concentration of the test compound in duplicate (methoxymethyl-3-[(2-methyl-1,3-thiazol-4-yl)ethynyl]pyridine or MPEP). [^3H]-3-Methoxy-5-(pyridin-2-ylethynyl)pyridine may also be used as the radioligand in the procedure described above. (See, Cosford, N. D. P.; Roppe, J.; Tehrani, L.; Seiders, T. J.; Schweiger, E. J. et al. [3H]-Methoxymethyl-MTEP and [3H]-methoxy-PEPy): Potent and selective radioligands for the Metabotropic Glutamate Subtype 5 (mGlu5) Receptor. Bioorg. Med. Chem. Lett. 2003, 13, 351-354.)

Chain of hmGluR5a receptor (P41594 other isoform, or with tags, fused parts or gaps): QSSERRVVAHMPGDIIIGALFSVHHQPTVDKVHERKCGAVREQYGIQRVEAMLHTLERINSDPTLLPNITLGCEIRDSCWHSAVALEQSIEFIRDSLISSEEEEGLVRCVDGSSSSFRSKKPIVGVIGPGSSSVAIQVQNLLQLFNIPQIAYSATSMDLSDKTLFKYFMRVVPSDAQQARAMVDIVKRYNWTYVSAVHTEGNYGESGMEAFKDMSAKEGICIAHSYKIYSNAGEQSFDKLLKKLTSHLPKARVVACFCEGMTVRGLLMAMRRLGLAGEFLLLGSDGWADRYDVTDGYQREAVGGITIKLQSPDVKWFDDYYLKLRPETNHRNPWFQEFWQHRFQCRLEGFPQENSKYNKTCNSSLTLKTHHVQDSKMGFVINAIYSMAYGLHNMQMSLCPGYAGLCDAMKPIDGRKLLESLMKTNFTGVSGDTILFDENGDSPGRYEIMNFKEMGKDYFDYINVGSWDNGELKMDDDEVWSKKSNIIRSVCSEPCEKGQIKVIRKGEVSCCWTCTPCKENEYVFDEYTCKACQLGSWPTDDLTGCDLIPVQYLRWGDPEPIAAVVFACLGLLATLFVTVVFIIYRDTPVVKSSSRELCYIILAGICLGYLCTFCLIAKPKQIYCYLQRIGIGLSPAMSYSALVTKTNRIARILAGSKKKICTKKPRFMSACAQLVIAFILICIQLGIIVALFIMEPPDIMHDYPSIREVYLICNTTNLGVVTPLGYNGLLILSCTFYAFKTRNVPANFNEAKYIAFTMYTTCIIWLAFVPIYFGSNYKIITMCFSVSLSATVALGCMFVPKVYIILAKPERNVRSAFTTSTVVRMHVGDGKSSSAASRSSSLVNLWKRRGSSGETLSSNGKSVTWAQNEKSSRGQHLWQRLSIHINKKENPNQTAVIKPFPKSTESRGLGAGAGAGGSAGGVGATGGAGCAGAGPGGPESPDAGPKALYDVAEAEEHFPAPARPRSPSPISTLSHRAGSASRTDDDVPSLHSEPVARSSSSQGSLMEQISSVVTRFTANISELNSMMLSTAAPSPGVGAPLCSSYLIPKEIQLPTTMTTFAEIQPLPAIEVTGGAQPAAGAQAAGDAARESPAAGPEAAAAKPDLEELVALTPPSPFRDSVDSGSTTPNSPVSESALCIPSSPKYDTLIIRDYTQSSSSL
Chain of metabotropic glutamate receptor subtype 5 (P31424 21-1203): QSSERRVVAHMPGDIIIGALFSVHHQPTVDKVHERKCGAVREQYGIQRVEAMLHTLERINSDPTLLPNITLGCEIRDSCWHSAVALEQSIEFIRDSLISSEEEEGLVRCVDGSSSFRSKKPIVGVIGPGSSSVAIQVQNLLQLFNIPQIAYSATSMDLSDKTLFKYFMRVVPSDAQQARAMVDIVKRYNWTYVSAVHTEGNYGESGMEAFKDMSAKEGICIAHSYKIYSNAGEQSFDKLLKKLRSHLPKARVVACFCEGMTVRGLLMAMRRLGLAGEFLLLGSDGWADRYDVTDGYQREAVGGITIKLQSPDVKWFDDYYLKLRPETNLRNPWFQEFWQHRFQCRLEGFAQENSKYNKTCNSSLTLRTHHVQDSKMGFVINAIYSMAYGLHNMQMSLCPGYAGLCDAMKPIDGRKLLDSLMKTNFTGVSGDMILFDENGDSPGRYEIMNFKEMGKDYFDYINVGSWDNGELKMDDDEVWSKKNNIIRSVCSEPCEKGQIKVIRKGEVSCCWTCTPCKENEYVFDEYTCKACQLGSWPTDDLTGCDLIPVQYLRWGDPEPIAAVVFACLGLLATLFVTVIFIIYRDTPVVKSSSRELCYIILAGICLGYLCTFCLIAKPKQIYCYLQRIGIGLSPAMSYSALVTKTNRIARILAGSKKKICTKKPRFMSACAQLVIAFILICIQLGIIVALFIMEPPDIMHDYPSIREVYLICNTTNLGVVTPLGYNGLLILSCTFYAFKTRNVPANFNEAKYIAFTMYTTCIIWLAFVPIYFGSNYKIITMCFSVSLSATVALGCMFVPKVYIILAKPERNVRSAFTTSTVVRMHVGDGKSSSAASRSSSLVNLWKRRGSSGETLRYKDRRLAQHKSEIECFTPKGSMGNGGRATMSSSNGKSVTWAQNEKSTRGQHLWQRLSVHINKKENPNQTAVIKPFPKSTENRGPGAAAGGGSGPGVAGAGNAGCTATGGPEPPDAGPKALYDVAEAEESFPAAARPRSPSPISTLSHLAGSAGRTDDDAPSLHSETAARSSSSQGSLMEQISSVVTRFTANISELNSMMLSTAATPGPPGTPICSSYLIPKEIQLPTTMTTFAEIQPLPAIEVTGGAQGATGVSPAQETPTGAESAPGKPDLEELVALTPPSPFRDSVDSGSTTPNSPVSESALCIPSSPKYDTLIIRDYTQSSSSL

Compound	IC50 (hmGluR5a receptor) [nM]	Ki [1] [nM]
Cc1nc(C#Cc2ccc(N3CCC(C)CC3)nc2)cs1 [Example 81]	3	6
Cc1nc(C#Cc2ccc(-c3ccc(F)cc3)nc2)cs1 [Example 46]	11	2
Cc1nc(C#Cc2cncc(-c3ccccc3CO)c2)cs1 [Example 84]	2	7
Cc1nc(C#Cc2ccc(-c3cc(F)ccc3C)nc2)cs1 [Example 12, 2-(5-fluoro-2-methylphenyl)-5-[(2-methyl-1,3-thiazol-4-yl)ethynyl]pyridinium trifluoroacetate]	0.6	1.1
CCC(C)Nc1ncc(C#Cc2csc(C)n2)cn1 (stereo not drawn) [Example 94]	9	6
Cc1nc(C#Cc2ccc(-c3cccc(C#N)c3)nc2)cs1 [Example 70]	5	5
COc1ccc(F)cc1-c1ccc(C#Cc2csc(C)n2)cn1 [Example 6, 2-(5-fluoro-2-methoxyphenyl)-5-[(2-methyl-1,3-thiazol-4-yl)ethynyl]pyridine]	4.4	1.2
CCC(CC)Nc1ccc(C#Cc2csc(C)n2)cn1 [Example 66]	5	9
Cc1cc(C#N)cc(-c2ccc(C#Cc3csc(C)n3)cn2)c1 [Example 34]	18	15
Cc1nc(C#Cc2ccc(-c3ccc(F)c(F)c3)nc2)cs1 [Example 45]	11	7
Cc1nc(C#Cc2ccc(C3CCCC3)nc2)cs1 [Example 75]	4	4
COCc1ccccc1-c1ccc(C#Cc2csc(C)n2)cn1 [Example 71]	5	4.5
Cc1nc(C#Cc2ccc(N3C4CCC3CC4)nc2)cs1 [Example 53]	8	8
CCCN(C)c1ccc(C#Cc2csc(C)n2)cn1 [Example 86]	2	7
COc1ccccc1-c1ccc(C#Cc2csc(C)n2)cn1 [Example 8, 2-(2-methoxyphenyl)-5-[(2-methyl-1,3-thiazol-4-yl)ethynyl]pyridine]	1	0.9
Cc1nc(C#Cc2cnc(N3CCCC3)nc2)cs1 [Example 97]	5	13
Cc1nc(C#Cc2ccc(-c3ccc(F)c(C)c3)nc2)cs1 [Example 49]	9	5.5
CSc1ccccc1-c1ccc(C#Cc2csc(C)n2)cn1 [Example 64]	6	0.8
CC[C@@H](C)Nc1ccc(C#Cc2csc(C)n2)cn1 [Example 68]	5	7
Cc1nc(C#Cc2ccc(-n3ccc4cccnc43)nc2)cs1 [Example 17, 1-{5-[(2-methyl-1,3-thiazol-4-yl)ethynyl]pyridin-2-yl}-1H-pyrrolo[2,3-b]pyridine]	0.4	3.8
Cc1nc(C#Cc2ccc(NC(C)(C)C)nc2)cs1 [Example 72]	5	7

Other lines, results leading:

IC50 (hmGluR5a receptor) [nM]	Ki [1] [nM]	Compound
12	7	Cc1nc(C#Cc2cnc(N3CCCC(CO)C3)nc2)cs1 (stereo not drawn) [Example 92]
3	3	Cc1cncc(C#Cc2csc(C)n2)c1 [Example 80]
3	1.4	C=Cc1cncc(C#Cc2csc(C)n2)c1 [Example 78]
2.9	12.2	Cc1nc(C#Cc2ccc(C(C)(C)C)nc2)cs1 [Example 31, 2-tert-butyl-5-[(2-methyl-1,3-thiazol-4-yl)ethynyl]pyridine]
2.3	23	Cc1nc(C#Cc2cnc(N3CCSCC3)nc2)cs1 [Example 100]
7	4	CCc1ccccc1-c1ccc(C#Cc2csc(C)n2)cn1 [Example 55]
6	11	CC[C@H](C)Nc1ccc(C#Cc2csc(C)n2)cn1 [Example 62]
6	1.5	Cc1nc(C#Cc2ccc(-c3cccc(Cl)c3C)nc2)cs1 [Example 60]
9	12	Cc1nc(C#Cc2ccc(N(C)c3ccccn3)nc2)cs1 [Example 50]
12	9	Cc1nc(C#Cc2ccc(N3CCSCC3)nc2)cs1 [Example 40]
0.9	2.7	Cc1nc(C#Cc2ccc(-c3cccc(F)c3)nc2)cs1 [Example 3, 2-(3-fluorophenyl)-5-[(2-methyl-1,3-thiazol-4-yl)ethynyl]pyridine]
14	3	Cc1nc(C#Cc2ccc(-c3c(C)cccc3C)nc2)cs1 [Example 36]
11	3	Cc1nc(C#Cc2cnc(N3CCCCCC3)nc2)cs1 [Example 93]
5	5	Cc1nc(C#Cc2cnc(N3CCCCC3C)nc2)cs1 (stereo not drawn) [Example 96]
3.5	3	Cc1nc(C#Cc2cncc(C3CC3)c2)cs1 [Example 76]
6	12	Cc1nc(C#Cc2ccc(N3CCCC(F)C3)nc2)cs1 (stereo not drawn) [Example 61]
2	12	CCC(C)Sc1ccc(C#Cc2csc(C)n2)cn1 (stereo not drawn) [Example 83]
0.1	2	Cc1nc(C#Cc2ccc(OC(C)C)nc2)cs1 [Example 26, 2-isopropoxy-5-[(2-methyl-1,3-thiazol-4-yl)ethynyl]pyridinium trifluoroacetate]
1	1	Cc1nc(C#Cc2cnc(NC(C)(C)C)nc2)cs1 [Example 105]
3	16	Cc1nc(C#Cc2ccc(Oc3ccccc3)nc2)cs1 [Example 79]
7	13	Cc1nc(C#Cc2ccc(-c3cccc(CO)c3)nc2)cs1 [Example 56]
